Test results as given in the supplement of paper PMC11061612.

Legend:
Assay in all cases: Bliss excess, mean over the matrix (fraction); higher = more synergy
[1] = system: LNZTA3WT4 (Low Grade Glioma)
In short: (§1)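 Cell lines in DMEM/F12 or RPMI with 10% FBS were plated in 1536-well plates, held 24 hours at 37°C, 5% CO2, then given two-drug dose matrices for 72 hours (DMSO typically 0.2%). Viability was read by CellTiter-Glo 2.0 luminescence and scaled as inhibition from 0 (vehicle wells) to 1 (blank wells). Combination Emax is the second-highest inhibition in the matrix; Bliss excess is observed combination effect minus expected EA + EB − EA·EB, EA and EB being single-agent effects.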

CAL-72 (Osteosarcoma) = system: CAL-72 (Osteosarcoma)
In short: as §1

[2] = system: BE-13 (T-Lymphoblastic Leukemia)
In short: as §1

LOXIMVI (Melanoma) = system: LOXIMVI (Melanoma)
In short: as §1

KS-1 (Glioblastoma) = system: KS-1 (Glioblastoma)
In short: as §1

[3] = system: OVCAR-5 (Ovarian Carcinoma)
In short: as §1

[4] = system: KYAE-1 (Esophageal Adenocarcinoma)
In short: as §1

[5] = system: ESS-1 (Other Solid Carcinomas)
In short: as §1

[6] = system: LS-123 (Colorectal Carcinoma)
In short: as §1

Structure (SMILES) | Bliss excess [1] | Bliss excess (CAL-72 (Osteosarcoma)) | Bliss excess [2] | Bliss excess (LOXIMVI (Melanoma)) | Bliss excess (KS-1 (Glioblastoma)) | Bliss excess [3] | Bliss excess [4] | Bliss excess [5] | Bliss excess [6]
C[C@@H](Nc1cc(F)cc(F)c1)c1cc(C(=O)N(C)C)cc2c(=O)cc(N3CCOCC3)oc12 [AZD8186] + C1CN(CCC1(C(=O)N[C@@H](CCO)C2=CC=C(C=C2)Cl)N)C3=NC=NC4=C3C=CN4 [AZD5363] (first compound max 10 µM, 7x7, partner max 10 µM) | -0.0615 | -0.0293 | -0.028 | -0.0495 | -0.0233 | -0.0442 | -0.0101 | -0.0165 | -0.0327
Cc1c2c(nn1C)CSCc1cc(n(C)n1)CSc1cc(c3ccccc3c1)OCCCc1c(C(=O)O)n(C)c3c-2c(Cl)ccc13 [AZD5991] + CC(=O)O[C@H]1C(=O)[C@@]2(C)[C@H]([C@H](OC(=O)c3ccccc3)[C@]3(O)C[C@H](OC(=O)[C@H](O)[C@@H](NC(=O)c4ccccc4)c4ccccc4)C(C)=C1C3(C)C)[C@]1(OC(C)=O)CO[C@@H]1C[C@@H]2O [Paclitaxel] (first compound max 1 µM, 7x7, partner max 3 µM) | -0.0447 | -0.0853 | -0.0476 | -0.0081 | -0.0057 | -0.0389 | 0.0015 | 0.0341 | -0.0691
C[C@@H]1COCCN1c1cc(C2([S@](C)(=N)=O)CC2)nc(-c2ccnc3[nH]ccc23)n1 [AZD6738] + C1CC(C1)(C(=O)[O-])C(=O)[O-].N.N.[Pt+2] [Carboplatin] (first compound max 10 µM, 7x7, partner max 10 µM) | -0.0459 | -0.063 | -0.0436 | -0.0438 | -0.0536 | -0.0347 | -0.015 | 0.0196 | -0.0239
CS(=O)(=O)CCNCc1ccc(-c2ccc3ncnc(Nc4ccc(OCc5cccc(F)c5)c(Cl)c4)c3c2)o1 [Lapatinib] + Cn1cnc2c(F)c(Nc3ccc(Br)cc3Cl)c(C(=O)NOCCO)cc21 [Selumetinib] (first compound max 10 µM, 7x7, partner max 10 µM) | -0.0268 | -0.0254 | -0.0253 | -0.0701 | -0.0387 | -0.0161 | 0.0206 | -0.0075 | 0.0002
O=C(c1cc(Cc2n[nH]c(=O)c3ccccc23)ccc1F)N1CCN(C(=O)C2CC2)CC1 [Olaparib] + COc1nnc2ccc(N3CCC(c4ccc(OCCN5CCN(C)C(=O)[C@H]5C)cc4)CC3)nn12 [AZD5153] (first compound max 10 µM, 7x7, partner max 1 µM) | -0.0516 | -0.0056 | -0.0681 | -0.0792 | -0.0205 | -0.0584 | -0.0202 | -0.0139 | -0.0084
C=CCn1c(=O)c2cnc(Nc3ccc(N4CCN(C)CC4)cc3)nc2n1-c1cccc(C(C)(C)O)n1 [AZD1775] + Nc1ccn([C@@H]2O[C@H](CO)[C@@H](O)C2(F)F)c(=O)n1 [Gemcitabine] (first compound max 1 µM, partner max 0.3 µM) | 0.0746 | -0.0796 | 0.0778 | -0.0118 | 0.0304 | 0.0364 |  | 0.0774 | -0.0068
O=C(c1cc(Cc2n[nH]c(=O)c3ccccc23)ccc1F)N1CCN(C(=O)C2CC2)CC1 [Olaparib] + CN(CC[C@H](CSC1=CC=CC=C1)NC2=C(C=C(C=C2)S(=O)(=O)NC(=O)C3=CC=C(C=C3)N4CCC(CC4)[C@H](C5=CC=CC=C5C6=CC=C(C=C6)Cl)O)S(=O)(=O)C(F)(F)F)CCO [AZD4320] (first compound max 10 µM, 7x7, partner max 1 µM) | -0.0332 | -0.0332 | 0.0096 | 0.0022 | -0.041 | -0.0414 | 0.0363 | 0.0825 | -0.0647
CC1(C)CCC(CN2CCN(c3ccc(C(=O)NS(=O)(=O)c4ccc(NCC5CCOCC5)c([N+](=O)[O-])c4)c(Oc4cnc5[nH]ccc5c4)c3)CC2)=C(c2ccc(Cl)cc2)C1 [Venetoclax] + CS(=O)(=O)CCNCc1ccc(-c2ccc3ncnc(Nc4ccc(OCc5cccc(F)c5)c(Cl)c4)c3c2)o1 [Lapatinib] (first compound max 1 µM, 7x7, partner max 10 µM) | -0.0178 | -0.0527 | -0.0101 | 0.007 | -0.0411 | -0.0479 | 0.0085 | 0.0298 | -0.0595
CS(=O)(=O)CCNCc1ccc(-c2ccc3ncnc(Nc4ccc(OCc5cccc(F)c5)c(Cl)c4)c3c2)o1 [Lapatinib] + NC1(c2ccc(-c3nc4ccn5c(=O)[nH]nc5c4cc3-c3ccccc3)cc2)CCC1 [MK-2206] (first compound max 10 µM, 7x7, partner max 10 µM) | -0.0334 | 0.0288 | -0.0842 | 0.043 | -0.0185 | -0.0101 | 0.0176 | 0.005 | 0.0101
